Assay results published in paper PMC10721898, “C5 methylation confers accessibility, stability and selectivity to picrotoxinin” (Nature Communications, 2023).
Where two headings read alike, the source gives them in different places.

What was measured:
Drosophila RDL = target: T1, Drosophila RDL (Drosophila melanogaster, UniProt P25123); assay: RDL receptors assay: two-electrode voltage clamp electrophysiology in Xenopus oocytes; format: cell-based
T1 construct: expressed in transfected cells; host or cells: Xenopus oocytes (Ecocyte, Austin, TX) microinjected with capped cRNA
T1 sequence (P25123 45-606): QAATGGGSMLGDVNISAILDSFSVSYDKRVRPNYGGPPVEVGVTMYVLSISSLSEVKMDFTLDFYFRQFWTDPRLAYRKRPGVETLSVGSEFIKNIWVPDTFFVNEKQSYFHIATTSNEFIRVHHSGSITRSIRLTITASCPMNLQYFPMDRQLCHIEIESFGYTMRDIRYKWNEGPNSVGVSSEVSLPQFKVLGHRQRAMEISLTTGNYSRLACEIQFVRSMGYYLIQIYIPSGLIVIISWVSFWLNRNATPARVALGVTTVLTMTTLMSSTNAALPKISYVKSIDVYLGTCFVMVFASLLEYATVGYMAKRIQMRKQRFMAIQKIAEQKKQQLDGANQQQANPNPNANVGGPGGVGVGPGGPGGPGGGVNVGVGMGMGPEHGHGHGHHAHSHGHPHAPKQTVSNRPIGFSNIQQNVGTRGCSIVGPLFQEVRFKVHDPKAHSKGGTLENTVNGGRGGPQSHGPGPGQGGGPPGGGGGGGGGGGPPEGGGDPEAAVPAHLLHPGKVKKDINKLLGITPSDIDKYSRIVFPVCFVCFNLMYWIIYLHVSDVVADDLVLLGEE
Procedure: 5. RDL receptors binding assay
The Drosophila RDL sequence (NP_01261616.1) was cloned into the pGH19 backbone via Gibson assembly for capped cRNA synthesis using the T7 mMessage mMachine kit (Invitrogen). cRNA samples were stored at - 80 °C until use. Ready to inject Xenopus oocytes were obtained from Ecocyte (Austin, TX) and microinjected using a Nanoinject III (Drummond Scientific) with 4 nL of cRNA (1 μg/μL). The oocytes were then incubated at 16 °C in ND96 storage solution (93.5 mM NaCl, 2 mM KCl, 1.8 mM CaCl 2·2H2O, 2 mM MgCl 2·6H2O, 5 mM HEPES at pH 7.5). Recording were made 1 -6 days post injection.
Electrophysiology experiments were performed using an automated two -electrode voltage clamp set -up (Roboocyte 2, Mutlichannel Systems). Recording head were filled with 3M KCl and gave resistan ce of 100-2000 kΩ in medium. Membrane potential was held at -60 mV and current signal was sampled at 20 kHz.
Experiments were performed at room temperature using Modified Barth’s Saline (MBS) (88 mM NaCl, 1 mM KCl, 2.4 mM NaHCO 3, 15 mM HEPES, 0.3 mM Ca(NO3)2, 0.41 mM CaCl 2, and 0.82 mM MgSO 4·7H2O at pH 7.4). Oocytes were perfused with MBS at 5 mL/min in all assays. GABA and all compounds were dissolved in MBS and a 0.1% DMSO negative control was utilized to correct for any solvent effect.
Initial block potential of each compound was assessed utilizing a pre -incubation method (MBS (30 sec), 10 μM GABA (15 sec), MBS wash (60 sec), compound (60 sec), compound + 10 μM GABA (15 sec), compound (60 sec), compound + 10 μM GABA (15 sec), MBS wash (60 sec) with 10 μM of each test compound. The maximum signal of the second co -application was compared to the initial GABA response to determine the % block and then standardized against the corresponding value of the 0.1% DMSO control. Dose responses were performed for any compound showing >50% block in the initial test using 10, 1, and 0.1 μM. The IC50 values were fit using an inhibitor vs response 4 -parameter fit (GraphPad Prism 8.1.2).
Supplementary Table 9. IC50 values of test compound
(§1) Compound IC50 (µM) Compound IC50 (µΜ)

[1] = reversible solvolysis; cited from earlier work
rat GABAA ion channel [2] = assay: Non-selective rat GABAA ion channel [3H]TBOB binding (antagonist radioligand) assay, rat cerebral cortex; conditions: for IC50: [3H]TBOB displacement, n = 1
Procedure: The structurally privileged 5-methyl series was assayed for binding to both GABAA receptors (rat cortex membrane preparations) and RDL (expressed in Xenopus oocytes) and compared directly to the parent PXN (C5-H) series. The parallel series of PXN and 5MePXN analogs allowed us to interrogate the effect of the synthetically-enabling and stabilizing C5 methyl. […]
4. Rat GABAA receptors binding assay
Non-selective rat GABAA ion channel [3H] TBOB binding (Antagonist Radioligand) assay was conducted by Eurofins Pharma Discovery Service of Eurofins Cerep, France.
Compound binding was calculated as a % inhibition of the binding of the radioactive ly labeled ligand [3H] TBOB (t‐[3H]Butylbicycloorthobenzoate) for rat GABAA ion channels.9 A 20.0 mM stock solution was prepared in DMSO from each test compound to evaluate radioligand displacement of [3H] TBOB from rat cerebral cortex GABAA receptors at different concentrations.
The results are expressed as a percent of control specific binding measured specific binding*100 […]
and as a percent inhibition of control specific binding
100 − (measured specific binding*100) […]
obtained in the presence of the test compounds.
The IC50 values (concentration causing a half -maximal inhibition of control specific binding) and Hill coefficients (nH) were determined by non -linear regression analysis of th e competition curves generated with mean replicate values using Hill equation curve fitting […]
where Y = specific binding, A = left asymptote of the curve, D = right asymptote of the curve , C = compound concentration, C 50 = IC50, and nH = slope factor. This analysis was performed using software developed at Cerep (Hill software) and validated by comparison with data generated by th e commercial software SigmaPlot® 4.0 for Windows ® (© 1997 by SPSS Inc.).
The inhibition constants (K i) were calculated using the Cheng Prusoff equation where L = concentration of radioligand in the assay, and KD = affinity of the radioligand for the recept or. A scatchard plot is used to determine the K D.
Supplementary Table 8. IC50 values of test compound
as §1

rat GABAA ion channel [3] = conditions: preliminary screen; read-out: IC50, competition with [3H]TBOB for binding to rat cerebral cortex; cited from earlier work

SMILES | IC50 (Drosophila RDL) | half-life in mouse plasma [1] | IC50 (rat GABAA ion channel [2]; Supplementary Table 8 (PXN series)) | loss in potency from PXN (rat GABAA ion channel [2]; [3H]TBOB binding) | IC50 (rat GABAA ion channel [2]; Supplementary Table 8 (5MePXN series)) | IC50 (rat GABAA ion channel [3])
C=C(C)[C@@H]1[C@H]2OC(=O)[C@@H]1[C@]1(O)C[C@H]3O[C@]34C(=O)O[C@H]2[C@]14C [PXN, picrotoxinin] | 800 nM | ~ 1 h | 210 nM |  |  | 
C=C(C)C1C2OC(=O)C1(C)C1(O)CC3OC34C(=O)OC2C41C (stereo not shown) [5MePXN, 5-methylpicrotoxinin] | 1710 nM |  |  | 10 fold | 1800 nM | 2100 ± 300 nM
